US6586460B1, “Heteroarotinoids containing urea or thiourea linker” (The Board of Regents for Oklahoma State University, priority 2001, dated 2003)

Key:
OVCAR-3 = test: Growth inhibition assay (SRB); format: cell-based, human
Excerpt: (§1) To illustrate the general and useful biological activity of the heteroarotinoids described in this invention, selected compounds were screened for ability to inhibit the growth of three ovarian cancerous cell lines, namely Caov, SKOV, and OVCAR cell lines, three cervical cell lines (Cervix HPV-Wt p53, Cervix HPV-Mut p53, and Cervix HPV-Mut p53), and one vulvar (Vulvar HPV-Mut p53) cell line as shown in Tables I-III. The cell lines and the technology have been previously described [See Journal of Medicinal Chemistry, 1999, Vol. 42, pages 3602-3614 in an article entitled “Synthesis, Structure-Activity Relationships, and RAR γ-Ligand Interactions of Nitrogen Heteroarotinoids” by A. Dhar, S. Liu, J. Klucik, K. D. Berlin, M. M. Madler, S. Lu, R. T. Ivey, D. Zacheis, C. W. Brown, E. C. Nelson, P. J. Birckbichler, and D. M. Benbrook], but the general technique was slightly modified. Cultures of the cancerous cells were plated in volumes of 150 μL in 96-well microtiter plates at concentrations of 2000-4000 cells/well, depending upon the cell line used. Retinoids were added the next day at 4× the concentrations in 50 μL of media resulting in 1, 2, 3, 4, 5, 7, and 10 μM final concentrations of each retinoid. Control cultures were treated with the same volume of DMSO. After 3 days of treatment, the cell density in each well was determined by fixing the cells in trichloroacetic acid followed by staining the cytoplasmic proteins with sulforhoamine B (SRB). After rinsing, the SRB was solubilized in Tris-HCl, and the optical density of each culture was determined with a MR600 microtiter plate reader. Each experiment was performed in triplicate, and the three values of each treatment were averaged. The average OD of the treated cultures was divided by that of the control cultures treated with solvent alone. To determine the percent growth inhibition, this ratio was subtracted from 1 and multiplied by 100. Tables I, II, and III contain representative examples of the inhibition of growth by the inventive heteroarotinoids of the cancerous cell lines investigated at two independent concentrations (1 and 10 μM). As standards for comparison purposes, trans-retinoic acid (t-RA), 9-cis-retinoic acid (9-c-RA), 13-cis-retinoic acid (13-c-RA), and […] (4-HPR) were added in parallel experiments along with the heteroarotinoids and with dimethyl sulfoxide (DMSO) as the solvent. For convenience, the data in Tables II and III are duplicated and ranked according to tumor type.

[1] = tested on: ovarian carcinoma cell line OVCAR-3; test: Apoptosis in organotypic culture, TUNNEL assay; format: cell-based, human; conditions: 1 μM, two weeks, organotypic culture, TUNNEL assay
Description: In another experiment, the ovarian carcinoma cell line OVCAR-3 was grown in organotypic culture. After one week, the cultures were treated with 1 μM solution of heteroarotinoids 11, 12, and 13, or with the same volume of DMSO (solvent), for two weeks. Both 9-c-RA and 4-HPR were used as controls. At the end of the time, the cultures were fixed in sectioned, and stained with the TUNNEL assay to detect apoptosing cells. An experienced pathologist quantitated the percent of apoptosing cells by light microscopic examination.

[2] = tested on: OVCAR-3 cisplatin-resistant ovarian carcinoma cell line; test: Cisplatin chemosensitization (MTS assay); format: cell-based, human; conditions: for chemosensitization to cisplatin (percent growth, FIG. 2): 1 μM retinoid 3 days before and 3 days after one hour of cisplatin (40 μM or 1 μg/ml)
Description: The compounds of the present invention also find advantage over the standard retinoids, including retinoic acid and 4-HPR as chemosensitization agents. In another study, ovarian carcinoma cultures, including cisplatin-resistant cultures, were trypsinized and plated in microtiter plates at a concentration of 1000 cells per well. A series of natural and synthetic retinoids, including exemplar heteroarotinoids with the novel three atom linker, at a concentration of 5 μM were added to triplicate wells in the microtiter plates twenty-four hours later. The same volume of DMSO used to administer the compounds were added to the control cultures. After three days of treatment, a range of cisplatin concentrations were added to the wells. After one hours of exposure, the media and retinoid drugs were replenished. Cell survival was quantitated using the MTS assay (Promega). […] Thus, the present invention contemplates the process of sensitizing cells to cisplatin therapy and combined cisplatin and radiation therapy using the inventive heteroarotinoids.
In this regard, the cisplatin resistant OVCAR-3 cell line was pre-treated with a concentration of 1 μM of the indicated retinoids for 3 days, and then exposed to cisplatin at the concentration detected in tumors of treated patients (40 μM or 1 μg/ml). […] After one hour of cisplatin exposure, the cisplatin was removed and the cultures were grown in the presence of 1 μM of the indicated retinoids for an additional 3 days. The number of living cells present was then determined using the MTS (3-(4,5-dimethylthiazol-2-yl)-5-(3-carboxymethoxyphenyl)-2H-tetrazolium inner salt) assay (Promega). In the MTS assay, metabolically active cells reduce the MTS compound to an aqueous soluble formazan resulting in an absorbance that can be measured at 490 nm (Promega Technical Bulletin No.169). The optical density at 490 nm (OD490) of the MTS-treated cultures is then determined and used as a measure of the number of living cells in each well. The percent growth is determined by dividing the OD490 of the treated cultures by the OD490 of the untreated control cultures.

[3] = Liver toxicity (plasma ALT activity, liver sections); format: in vivo; conditions: 10 mg/kg/day p.o.
Excerpt: Toxic compounds can induce livers to release enzymes called serum transaminases, such as alanine aminotransferase (ALT). The assay for ALT is the most universally accepted clinical laboratory marker used to evaluate hepatic toxicity induced by pharmaceuticals [See “Serum Transferase Elevations as Indicators or Hepatic Injury Following the Administration of Drugs”, Reg. Tox. Pharm., volume 27, 1998, pp 119-130, by D. E. Amacher]. At the end of the treatment period, blood was drawn from each animal. Plasma was separated by centrifugation and stored at −70° C. The activity of ALT was determined in aliquots of plasma by standard spectrophotometric enzymatic techniques which were based upon the reduction of pyruvate by lactate dehydrogenase [See “Aged Mice are Resistant to the Hepatotoxic Effects of Endotoxin and Galactosamine” in Exp. Mol. Pathology, volume 59, 1993, pp 27-37]. The method measures the disappearance of NADH from time of incubation at 37° C. The activities have been expressed in μm/Liter/min (Table VI). Two different amounts of plasma were utilized in each assay to assure the measurement of the maximum rate.
There were no statistically significant differences between the ALT activities in the different treatment groups (Table VI, t-test: P>0.05). All numbers were in the normal range (63 to 307 μm/Liter/Min) of ALT values for the species of mouse utilized. All liver sections were assessed by an experienced pathologist in a blinded manner. The degree of necrosis was very mild in all animals.

[4] = tested on: SW962 vulvar carcinoma cultures; test: Apoptosis assay, Annexin-V-Flous/propidium iodide flow cytometry; format: cell-based
Excerpt: Optimal chemotherapeutic agents will selectively kill tumor cells by inducing a natural form of cell death which is called “apoptosis”. Toxic agents kill both normal and tumor cells via a nonspecific process known as “necrosis”. To differentiate between apoptosis and necrosis in heteroarotinoid-treated cultures, a flow cytometric assay was employed. Treated cultures were stained with Annexin-V-Flous and propidium iodide, and the intensities of the stains are quantitated with Flow Cytometry. The Annexin-V-Flous binds to phosphatidyl serine on the exterior of apoptosing cells. This assay is specific for apoptosing cells because phosphatidyl serine is normally located on the inner membrane of the cells, a situation whereby the serine derivative cannot be bound by Annexin. However, during apoptosis, phosphatidyl serine is translocated to the outer membrane. The Flous moiety emits a signal that can be detected and quantitated by Flow Cytometry. In contrast, propidium iodide is taken up by necrotic cells that have lost membrane integrity. In this study, t-RA was used as a control for the non-apoptotic retinoids, and 4-HPR was used as a control for the apoptotic retinoids.

SK-OV-3 = test: Growth inhibition assay (SRB); format: cell-based
Excerpt: as §1

CAOV-3 = test: Growth inhibition assay (SRB); format: cell-based
Excerpt: as §1

SiHa = test: Growth inhibition assay (SRB); format: cell-based; conditions: 10 μM, three-day treatment, Table I
Excerpt: as §1

SW962 = test: Growth inhibition assay (SRB); format: cell-based; conditions: 10 μM, three-day treatment, Table I
Excerpt: as §1

C-33A = test: Growth inhibition assay (SRB); format: cell-based; conditions: 10 μM, three-day treatment, Table I
Excerpt: as §1

HT-3 = test: Growth inhibition assay (SRB); format: cell-based; conditions: 10 μM, three-day treatment, Table I
Excerpt: as §1

[5] = 1 μM, 3 days of treatment, Table II
[6] = 10 μM, 3 days of treatment, Table III
[7] = 10 μM, three-day treatment, Table I

Molecule | Percentage of growth inhibition, OVCAR−3 (OVCAR-3; [5]) [%] | Percentage of growth inhibition, OVCAR−3 (OVCAR-3; [6]) [%] | % APOPTOSIS of OVCAR-3 cells [1] [%] | chemosensitization to cisplatin (percent growth, FIG. 2) [2] | Percentage of growth inhibition, SKOV−3 (SK-OV-3; [5]) [%] | Percentage of growth inhibition, SKOV−3 (SK-OV-3; [6]) [%] | Percentage of growth inhibition, CAOV−3 (CAOV-3; [5]) [%] | Percentage of growth inhibition, CAOV−3 (CAOV-3; [6]) [%] | further results
CC1=C(/C=C/C(C)=C/C=C/C(C)=C/C(=O)Nc2ccc(O)cc2)C(C)(C)CCC1 [4-HPR, 4-hydroxyphenylretinamide, reference compound] | 2.7 | 43.1 | 95 | but not 4-HPR are effective | 7.2 | 64.9 |  |  | chemosensitization to cisplatin (cell survival, MTS) ([2]; 5 μM retinoid, three days, then range of cisplatin concentrations): prevented the growth increase; liver toxicity (ALT activities, liver sections assessed by pathologist) ([3]; mice): do not appear to induce significant liver toxicity; ALT ACTIVITY ([3]; plasma of mice at end of treatment period): 149.7 ± 140.9 μm/Liter/Min; Percentage of induction of apoptosis in SW962 vulvar carcinoma cultures ([4]; Days 0): 3%; Percentage of induction of apoptosis in SW962 vulvar carcinoma cultures ([4]; Days 1): 1.67%; Percentage of induction of apoptosis in SW962 vulvar carcinoma cultures ([4]; Days 2): 3.6%; Percentage of induction of apoptosis in SW962 vulvar carcinoma cultures ([4]; Days 3): 17.28%
9-cis-retinoic acid [9-c-RA, reference compound] | 6.2 | 5.3 | 80 |  | 23.0 | 16.0 |  |  | Percentage growth inhibition, OVCAR-3 (Ovarian HPV− Mut p53) (OVCAR-3; [7]): 28%; Percentage growth inhibition, CAOV-3 (Ovarian HPV− Mut p53) (CAOV-3; [7]): 27%; Percentage growth inhibition, SiHa (Cervix HPV+ Wt p53) (SiHa): 24%; Percentage growth inhibition, SW962 (Vulva HPV− Mut p53) (SW962): 31%; Percentage growth inhibition, SK-OV-3 (Ovarian HPV− Null p53) (SK-OV-3; [7]): 30%; Percentage growth inhibition, C-33A (Cervix HPV− Mut p53) (C-33A): 44%; Percentage growth inhibition, HT-3 (Cervix HPV− Mut p53) (HT-3): 47%
COc1cc2c(cc1NC(=S)Nc1ccc([N+](=O)[O-])cc1)C(C)(C)OCC2(C)C [heteroarotinoid 31, [(6-Methoxy-1,1,4,4-tetramethylisochroman-7-yl)amino][(4-nitrophenyl)amino]methane 1-Thione] | 3.88 |  |  |  |  |  |  |  | inhibition at 1 µM (OVCAR-3; Homo sapiens, OVCAR-3, 72 h, 1 μM, 3 days of treatment, Table II, read-out: Percentage of growth inhibition, OVCAR−3): 3.83%; inhibition at 10 µM (OVCAR-3; Homo sapiens, OVCAR-3, 72 h, 10 μM, 3 days of treatment, Table III, read-out: Percentage of growth inhibition, OVCAR−3): 80.6%; melting point: 178 to 179 °C; inhibition at 1 µM (CAOV-3; Homo sapiens, Caov-3, 72 h, 1 μM, 3 days of treatment, Table II, read-out: Percentage of growth inhibition, CAOV−3): 6.88%; inhibition at 10 µM (CAOV-3; Homo sapiens, Caov-3, 72 h, 10 μM, 3 days of treatment, Table III, read-out: Percentage of growth inhibition, CAOV−3): 30.8%; inhibition at 1 µM (SK-OV-3; Homo sapiens, SK-OV-3, 72 h, 1 μM, 3 days of treatment, Table II, read-out: Percentage of growth inhibition, SKOV−3): -1.42%; inhibition at 10 µM (SK-OV-3; Homo sapiens, SK-OV-3, 72 h, 10 μM, 3 days of treatment, Table III, read-out: Percentage of growth inhibition, SKOV−3): 27.4%
Cc1cc([N+](=O)[O-])ccc1NC(=S)Nc1ccc2c(c1)C(C)(C)CC(C)(C)S2 [heteroarotinoid 16] | 10.20 | 74.05 |  | effective | −1.67 | 52.81 | 15.33 | 83.22 | 
CCOC(=O)c1ccc(NC(=O)Nc2cccc3c2SC(C)(C)CC3(C)C)cc1 [heteroarotinoid 24] | −2.16 | 26.53 |  | effective | 1.86 | 7.98 | 17.55 | 53.11 | 
